Measurements as given in PubChem BioAssay (NCI).
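These data come from cells grown in 96-well plates and exposed to compound for 48 hours at five concentrations. At the GI50, growth is halved. TGI: concentration producing complete growth inhibition.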

Legend:
Assay in all cases: inhibition of tumour cell growth, NCI panel, 48 h
[1] = system: EKVX NSCLC
[2] = system: HCT-15 colon
[3] = system: IGROV1 ovarian
[4] = system: KM12 colon
[5] = system: M14 melanoma
[6] = system: OVCAR-3 ovarian
[7] = system: OVCAR-8 ovarian
[8] = system: SF-295 CNS
[9] = system: SK-MEL-5 melanoma
[10] = system: SN12C renal
[11] = system: SNB-19 CNS
[12] = system: SW-620 colon
[13] = system: UACC-257 melanoma

SMILES	TGI [1] [µM]	TGI [2] [µM]	TGI [3] [µM]	TGI [4] [µM]	TGI [5] [µM]	TGI [6] [µM]	TGI [7] [µM]	TGI [8] [µM]	TGI [9] [µM]	TGI [10] [µM]	TGI [11] [µM]	TGI [12] [µM]	TGI [13] [µM]	GI50 [2] [nM]	GI50 [5] [nM]	GI50 [8] [nM]	GI50 [9] [nM]	GI50 [10] [nM]	GI50 [11] [nM]	GI50 [13] [nM]
N=C(N)C(N=Nc1ccccc1)C(N)=O (stereo not drawn)	> 100	> 100	> 100	> 100	> 100	> 100	> 100	> 100	> 100	> 100	> 100	> 100	> 100	–	–	–	–	–	–	–
CCCCNc1c(CN)cnc2cc(Cl)ccc12	17.1	33.1	34.4	36.7	36.6	32.3	33.8	29.8	29.3	37.9	51	33.5	26.5	–	–	–	–	–	–	–
CN(C)CCCNc1ncnc2nc[nH]c12	> 100	> 100	> 100	> 100	> 100	> 100	> 100	> 100	> 100	> 100	> 100	> 100	–	–	–	–	–	–	–	–
O=c1[nH]/c(=C/c2ccc(OCc3ccccc3)cn2)c(=O)[nH]/c1=C/c1ccc(Cl)cc1	> 100	> 100	> 100	> 100	> 100	2.45	> 100	29.4	> 100	> 100	> 100	> 100	> 100	–	–	–	–	–	–	–
NC(=O)NO	> 2460	2360	> 2020	2500	1950	2500	> 2460	1950	2230	2390	> 2340	> 2500	> 2500	–	–	–	–	–	–	–
O=C(N/N=C/c1ccc([N+](=O)[O-])cc1)c1cccc2nc3ccccc3nc12	> 100	> 100	> 100	> 100	> 100	> 100	> 100	> 100	> 100	> 100	> 100	> 100	> 100	–	–	–	–	–	–	–
Cc1ccc2cc3c(ccc4ccccc43)c3c2c1CC3	> 100	> 100	> 100	> 100	> 100	> 100	> 100	> 100	> 100	> 100	> 100	> 100	> 100	–	–	–	–	–	–	–
C=CC(=O)N1CCN(c2nc(OC[C@@H]3CCCN3C)nc3c2CCN(c2cccc4cccc(C)c24)C3)C[C@@H]1CC#N	–	2.92	–	–	3.57	–	–	2.9	3.06	2.87	2.99	–	3.74	1450	1820	1530	1680	1460	1590	1790
CC(=O)Oc1ccc2c(C)cc(=O)oc2c1	> 100	> 100	> 100	> 100	> 100	> 100	> 100	> 100	> 100	> 100	> 100	> 100	> 100	–	–	–	–	–	–	–
COc1cc2nc(-c3cccs3)nc(N3C(c4ccc(O)cc4)=NNC(=O)c4ccccc43)c2cc1OC	75.6	> 100	97.7	> 100	79.4	–	> 100	39.4	> 100	50.2	> 100	79.8	84.9	–	–	–	–	–	–	–
Nc1ccc(C2NC(=O)Cc3c2ccc2ccccc32)cc1 (stereo not drawn)	> 100	> 100	> 100	> 100	> 100	> 100	> 100	> 100	> 100	–	> 100	> 100	> 100	–	–	–	–	–	–	–
COc1ccc(C2C(=O)C(Cl)N2Nc2nc(C)cc(=O)[nH]2)cc1OC (stereo not drawn)	> 100	> 100	70.2	> 100	> 100	84.8	> 100	–	> 100	94.2	> 100	> 100	> 100	–	–	–	–	–	–	–
